Results published in PubChem BioAssay (NCI).
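All cell lines were grown in 96-well plates and treated with compound for 48 hours. At the GI50, growth is halved. TGI: concentration producing complete growth inhibition.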

Experiments:
Experiment in all cases: growth of human tumour cells (NCI), 48 h
[1] = test system: SW-620 colon
[2] = test system: SK-MEL-28 melanoma
[3] = test system: SK-MEL-5 melanoma
[4] = test system: HOP-62 NSCLC
[5] = test system: EKVX NSCLC
[6] = test system: MCF7 breast
[7] = test system: UO-31 renal
[8] = test system: SF-295 CNS
[9] = test system: 786-0 renal
[10] = test system: KM12 colon

| Structure (SMILES) | GI50 [1] | TGI [1] | GI50 [2] | TGI [2] | GI50 [3] | TGI [3] | GI50 [4] | TGI [4] | GI50 [5] | TGI [5] | GI50 [6] | TGI [6] | GI50 [7] | TGI [7] | GI50 [8] | TGI [8] | GI50 [9] | TGI [9] | GI50 [10] | TGI [10] |
| --- | --- | --- | --- | --- | --- | --- | --- | --- | --- | --- | --- | --- | --- | --- | --- | --- | --- | --- | --- | --- |
| COc1cc2ncc3c(nc4sccn43)c2cc1OC | 41.9 µM | > 100 µM | 28.9 µM | 95 µM | 48.4 µM | > 100 µM | 18.7 µM | 51.4 µM | 20.7 µM | > 100 µM | 36.8 µM | > 100 µM | 33.6 µM | > 100 µM | 18.3 µM | 62.8 µM | 14.6 µM | 40.2 µM | 8.38 µM | > 100 µM |
| O=C(NNS(=O)(=O)c1ccc(Cl)cc1Cl)c1cccnc1Nc1ccc(Cl)cc1 | 28.4 µM | > 100 µM | 35.4 µM | > 100 µM | 14.2 µM | 29.7 µM | 16.6 µM | 37.7 µM | 26.1 µM | > 100 µM | 35.2 µM | > 100 µM | 37.2 µM | > 100 µM | 30.2 µM | 77.7 µM | 19.6 µM | 49.4 µM | 13.8 µM | 28.6 µM |
| CNNC(=NS(=O)(=O)c1cc(C#N)c(NNC)cc1S)NNC | – | > 10 µM | – | > 10 µM | – | > 10 µM | – | > 10 µM | – | > 10 µM | – | > 10 µM | – | > 10 µM | – | > 10 µM | – | > 10 µM | – | > 10 µM |
| C/C(=N\O)c1cccc(Nc2cc(-n3ccnc3)c3ccccc3n2)c1 | 19.6 µM | 42.1 µM | 14.3 µM | 29.8 µM | 13.9 µM | 27.2 µM | 16.6 µM | 31.3 µM | 13.2 µM | 28.1 µM | > 100 µM | > 100 µM | 13.8 µM | 34.6 µM | 8.16 µM | 22.8 µM | 12.2 µM | 28.7 µM | 10.5 µM | 31.8 µM |
| COc1cccc(Oc2ccccc2NC(=O)CNC(=O)c2cccc3ccccc23)c1 | 0.164 µM | > 25 µM | 4.35 µM | > 25 µM | 0.216 µM | 3.65 µM | 0.302 µM | > 25 µM | 1.28 µM | > 25 µM | 0.1 µM | > 25 µM | 1.8 µM | > 25 µM | 0.111 µM | > 25 µM | 0.183 µM | > 25 µM | 0.19 µM | 19.6 µM |
| Cc1cc(C)c(C2CNCc3cc4c(cc32)CNCC4c2c(C)cc(C)cc2C)c(C)c1 (stereo not given) | 3.11 µg/mL | 11.5 µg/mL | 1.83 µg/mL | 3.47 µg/mL | 2 µg/mL | 3.96 µg/mL | 8.62 µg/mL | 22.3 µg/mL | 5.97 µg/mL | 17.2 µg/mL | 5.42 µg/mL | 20.1 µg/mL | 2.04 µg/mL | 5.56 µg/mL | 3.44 µg/mL | 13.1 µg/mL | 2.34 µg/mL | 5.26 µg/mL | 2.6 µg/mL | 6.74 µg/mL |
| CC(=O)O[C@@H]1C[C@@]2(C)[C@@H]3CC=C4[C@@H](C[C@H](O)C(=O)C4(C)C)[C@]3(C)C(=O)C[C@]2(C)[C@H]1[C@@](C)(O)C(=O)/C=C/C(C)(C)OC(C)=O | – | 35.6 µM | – | 29.4 µM | – | 11 µM | – | 5.29 µM | – | 26 µM | – | > 100 µM | – | 0.881 µM | – | 34.1 µM | – | > 70.4 µM | – | 39.2 µM |
| COc1ccc(C(=O)/C=C/c2ccc(OCC#N)cc2)cc1 | – | 33.6 µM | – | 32.9 µM | – | 28.4 µM | – | > 100 µM | – | > 100 µM | – | 36.1 µM | – | 30.6 µM | – | > 100 µM | – | > 100 µM | – | 32.6 µM |
| Nc1nc(N)c(CCCCc2ccccc2)c(N)n1 | – | > 100 µM | – | > 100 µM | – | > 100 µM | – | > 100 µM | – | > 100 µM | – | > 100 µM | – | > 100 µM | – | > 100 µM | – | > 100 µM | – | > 100 µM |
| Cc1ccncc1C(N)=O | > 100 µM | > 100 µM | > 100 µM | > 100 µM | > 100 µM | > 100 µM | > 100 µM | > 100 µM | > 100 µM | > 100 µM | > 100 µM | > 100 µM | > 100 µM | > 100 µM | > 100 µM | > 100 µM | > 100 µM | > 100 µM | > 100 µM | > 100 µM |
| Oc1c(-c2cc(C(F)(F)F)[nH]n2)cc(Cl)c(OCc2ccc(Cl)cc2)c1-c1ccc(Cl)c(C(F)(F)F)c1 | 0.298 µM | 4.15 µM | 0.392 µM | 2.13 µM | 0.265 µM | 0.941 µM | 0.766 µM | 3.04 µM | 0.795 µM | 5.56 µM | 0.228 µM | 5.39 µM | 0.818 µM | 2.21 µM | 0.607 µM | 1.96 µM | 0.647 µM | 2.14 µM | 0.862 µM | 2.66 µM |
| NNc1nnc(-c2nnc(NN)o2)o1 | – | > 10 µM | – | > 10 µM | – | > 10 µM | – | > 10 µM | – | > 10 µM | – | > 10 µM | – | > 10 µM | – | > 10 µM | – | > 10 µM | – | > 10 µM |
| COc1cc2c(cc1F)C(c1ccccc1Cl)=Nc1c(n[nH]c1C)N2 | 0.486 µM | 20 µM | 5.66 µM | 20.4 µM | 0.328 µM | 6.51 µM | 1.31 µM | 19.1 µM | 2.84 µM | 18.4 µM | 1.03 µM | 20.7 µM | 0.84 µM | 6.25 µM | 0.477 µM | 15.7 µM | 1.82 µM | 19.3 µM | 0.502 µM | 15.5 µM |
| O=Nc1c(-c2c(O)[nH]c3ncccc23)[nH]c2ccccc12 | 11.3 µM | > 100 µM | > 57.3 µM | > 100 µM | 15 µM | > 100 µM | > 100 µM | > 100 µM | 1.32 µM | > 100 µM | 18.7 µM | > 100 µM | 1.64 µM | > 100 µM | > 100 µM | > 100 µM | 21.8 µM | > 100 µM | 1.32 µM | > 100 µM |
